Data published in ChEMBL document CHEMBL1134958 (Bioorg Med Chem Lett, 2002).

Tests used:
[1] = Ratio of inhibitory activities against human tryptase to that of human urokinase plasminogen activator (microPa)
[2] = Ratio of inhibitory activities against human tryptase to that of human thrombin
[3] = Ratio of inhibitory activities against human tryptase to that of human plasmin
[4] = Ratio of inhibitory activities against human tryptase to that of human trypsin
[5] = Ratio of inhibitory activities against human tryptase to that of human tissue plasminogen activator (tissue plasminogen activator)
[6] = Aqueous stability was evaluated as half life at 37 degree C at pH 7; format: physicochemical; conditions: aqueous solution
[7] = Aqueous stability was evaluated as half life at 37 degree C at pH 9; format: physicochemical; conditions: aqueous solution
[8] = biological target: Tryptase (Homo sapiens, UniProt Q9BZJ3+Q15661+Q9NRR2); experiment: Inhibitory concentration against human tryptase

Row | Compound | Ratio [1] | Ratio [2] | Ratio [3] | Ratio [4] | Ratio [5] | half-life [6] [min] | half-life [7] [min] | IC50 [8] [nM]
1 | CC(C)C(OC(=O)N1CCN(C(=O)N2C(=O)[C@H](CC3CCCN(C(=N)N)C3)[C@H]2C(=O)O)CC1)C(C)C (stereo in doubt; form 2) [listing 1 of 2 here] | > 465 | > 465 | > 465 | 364 | > 465 |  |  | 
2 | CN(CCCCc1ccccc1)C(=O)N1CCN(C(=O)N2C(=O)[C@H](CC3CCCN(C(=N)N)C3)[C@H]2C(=O)O)CC1 (stereo partly specified) | > 5500 | > 5500 | 3620 | 2170 | > 5500 | > 2880 | 1430 | 6
3 | N=C(N)N1CCCC(C[C@H]2C(=O)N(C(=O)N3CCN(C(=O)CCCCCc4ccccn4)CC3)[C@@H]2C(=O)O)C1 (stereo partly specified) | 5000 | > 7150 | > 7150 | 739 | > 7150 |  |  | 4.6
4 | CC(C)(C)NC(=O)N1CCN(C(=O)N2C(=O)[C@H](CCCN=C(N)N)[C@H]2C(=O)O)CC1 | 135 | 2620 | 430 | 18 | > 8250 | > 2880 |  | 
5 | N=C(N)NCCC[C@H]1C(=O)N(C(=O)N2CCN(C(=O)CCCCCc3ccccc3)CC2)[C@@H]1C(=O)O | > 226 | > 16500 | > 26 | > 8 | > 16500 |  |  | < 1.7
6 | CC(C)C(OC(=O)N1CCN(C(=O)N2C(=O)[C@H](CCCN=C(N)N)[C@H]2C(=O)O)CC1)C(C)C | 843 | > 9170 | 364 | 5 | 9170 | > 2880 | 438 | 4
7 | CC(C)C(OC(=O)N1CCN(C(=O)N2C(=O)[C@H](CC3CCCN(C(=N)N)C3)[C@H]2C(=O)O)CC1)C(C)C (stereo in doubt; form 1) [listing 1 of 2 here] |  |  |  |  |  | > 2880 | > 2880 | 71
8 | N=C(N)N1CCCC(C[C@H]2C(=O)N(C(=O)N3CCN(C(=O)NCCCCc4ccccc4)CC3)[C@@H]2C(=O)O)C1 (stereo partly specified) | > 8780 | > 19400 | > 16100 | > 1360 | > 19400 | > 2880 | 720 | < 1.7
9 | CC(C)C(OC(=O)N1CCN(C(=O)N2C(=O)[C@H](CC3CCCN(C(=N)N)C3)[C@H]2C(=O)O)CC1)C(C)C (single isomer, unassigned) [listing 1 of 2 here] |  |  |  |  |  |  |  | 204
10 | N=C(N)N1CCC[C@H](C[C@H]2C(=O)N(C(=O)N3CCN(C(=O)CCCCCc4ccccc4)CC3)[C@@H]2C(=O)O)C1 | > 11800 | > 19400 | > 12900 | > 3390 | > 19400 | > 2880 | > 1050 | < 1.7
11 | N=C(N)N1CCCC(C[C@H]2C(=O)N(C(=O)N3CCN(C(=O)CCCCCC4CCCCC4)CC3)[C@@H]2C(=O)O)C1 (stereo partly specified) | 12100 | > 17400 | 8420 | 1680 | > 17400 |  |  | 1.9
12 | N=C(N)N1CCC[C@@H](C[C@H]2C(=O)N(C(=O)N3CCN(C(=O)CCCCCc4ccccc4)CC3)[C@@H]2C(=O)O)C1 | > 19400 | > 19400 | > 19400 | > 3280 | > 19400 | > 2880 | > 1050 | < 1.7
13 | CC(C)C(OC(=O)N1CCN(C(=O)N2C(=O)[C@H](CC3CCCN(C(=N)N)C3)[C@H]2C(=O)O)CC1)C(C)C (single isomer, unassigned) [listing 2 of 2 here] | > 162 | > 162 | > 162 | > 162 | > 162 |  |  | 
14 | N=C(N)N1CCCC(C[C@H]2C(=O)N(C(=O)N3CCN(C(=O)OCCCOc4ccccc4)CC3)[C@@H]2C(=O)O)C1 (stereo partly specified) | > 19400 | > 19400 | > 92500 | > 1680 | > 19400 |  |  | < 1.7
15 | CC(C)C(OC(=O)N1CCN(C(=O)N2C(=O)[C@H](CC3CN(C(=N)N)C3)[C@H]2C(=O)O)CC1)C(C)C | 862 | > 2840 | 394 | 7 | 2840 | > 2880 | 864 | 12
16 | CC(C)C(OC(=O)N1CCN(C(=O)N2C(=O)[C@H](CC3CCCN(C(=N)N)C3)[C@H]2C(=O)O)CC1)C(C)C (stereo in doubt; form 2) [listing 2 of 2 here] |  |  |  |  |  |  |  | 63
17 | CC(C)C(OC(=O)N1CCN(C(=O)N2C(=O)[C@H](CC3CCCN(C(=N)N)C3)[C@H]2C(=O)O)CC1)C(C)C (stereo in doubt; form 1) [listing 2 of 2 here] | > 465 | > 465 | > 465 | 258 | > 465 |  |  | 
18 | N=C(N)N1CCCC(C[C@H]2C(=O)N(C(=O)N3CCN(C(=O)CCCCCc4ccccc4)CC3)[C@@H]2C(=O)O)C1 (stereo partly specified) | > 17500 | > 19400 | > 16300 | > 1940 | > 19400 | > 2880 | > 1050 | < 1.7
